In patent publication US20080267996A1 (priority 2005, published 2008):

What was measured:
[1] = system: HBsAg; experiment: HBsAg / Anti-HBs serotyping (VITROS ECi); assay type: in vivo, hepatitis B virus; conditions: Week 14/18; Part 2 Group C (n 11)
Method: Serotyping was performed using a VITROS ECi Immunodiagnostic System.

[2] = system: HBs peptide pools (PreS2 + S ayw) and HbsAg protein; experiment: Ex vivo IFN-gamma ELISPOT of patient PBMC; assay type: in vivo, human; conditions: Part 2 Groups A, B, C
Method: ELISPOT Assays were carried out by Cellular Technology Limited (CTL Laboratory LLC. 10515 Carnegie Ave., Suite 503 Cleveland Ohio 44106, USA) using the following assay conditions:
The following peptides were pooled and used as antigens:
The HBs series of peptides are arranged into 4 distinct pools of peptides, each containing up to 12 total peptides:
The entire HbsAg protein was also used as an antigen.
An ELISPOT response to a peptide pool (or HbsAg protein) was considered to have occurred when the mean +/− standard deviation for the peptide pool, or HbsAg protein, was greater than the mean +3 standard deviations of that patient's negative control.

## Nc1ccn([C@@H]2CS[C@H](CO)O2)c(=O)n1 [lamivudine, Lamivudine]
[1]
  HBsAg−, percent of patients: 9%
[2]
  baseline immunological responses (detected prior to treatment, unchanged or reduced): 3
  boosted immunological responses (of baseline responses): 5/8
  de novo immunological responses (of baseline non-responders): 0/3
